Patent publication US6719976B1, “Peptide-based immunotherapeutic agent for treating allergic diseases” (Meiji Milk Products Co., Ltd., priority 1996, dated 2004)

Assays:
Assay type in all cases: cell-based, human
[1] = tested on: T cell clones; test: Recognizing the T cell epitopes in the multi-epitope peptide C.A.#4 by T cell clones; conditions: clones PB8-3, PB8-34, PB4-22, PB14-5, PB14-3; C.A.#4 10 μg/ml
Method: The antigenic peptide constituting the multi-epitope peptide C.A.#4 obtained in Example 6 was examined to determine if the antigenic peptide actually functions as a T cell epitope.
On a 96-well micro culture plate, a mixture of 5×10^4 cells of the autologous B cell line previously treated with mitomycin C and 2×10^4 cells of the T cell clone was incubated for 2 days in 0.2 ml 15% serum-supplemented RPMI-1640 medium, together with, as an antigen, either 50 μg/ml of Cry j 1 and 2 μg/ml of Cry j 2, each antigenic peptide constituting the multi-epitope peptide C.A.#4 or 10 μg/ml C.A.#4 multi-epitope peptide produced by gene expression. After 0.5 μCi [^3H] thymidine was added to the medium, incubation was continued for a further 16 hours. After the cells were harvested on a glass filter using a cell harvester, the level of [^3H] thymidine taken up into the cells was determined using a liquid scintillation counter.

[2] = tested on: T cell clones that specifically recognize Cry j 1 or Cry j 2; test: Identifying T cell epitope peptide recognized by T cell clone; conditions: 2 μM overlapping peptide; clones from patients
Description: Two patients, Patient B (PB) and Patient J (PJ), who recognize Peptide Nos. 43 and 22 showing a high positivity index in Cry j 1 and three patients, who recognize Peptide Nos. 14, 38, 48, and 69 showing a high positivity index in Cry j 2 were selected from the eighteen patients with cedar pollinosis. Peripheral lymphocytes from these patients with cedar pollinosis were stimulated by Cry j 1 or Cry j 2 to establish T cell clones capable of recognizing Cry j 1 or Cry j 2. The types of HLA class I and class II molecules of the four patients are shown below.
Thirty-five T cell clones in total that specifically recognize Cry j 1 were established from the peripheral lymphocytes derived from PB, and 14 similar T cell clones from PJ. Likewise, 31 T cell clones, 10 T cell clones, and 17 T cell clones in total that specifically recognize Cry j 2 were established from the peripheral lymphocytes derived from PB, PC and PR, respectively. […] A mixture of 5×10^4 cells of the autologous B cell line previously treated with mitomycin C, 2 μM of an overlapping peptide, and 2×10^4 cells of the T cell clone was incubated for 2 days in RPMI-1640 medium supplemented with 0.2 ml of 15% serum on a 96-well micro culture plate. […] After the cells were harvested on a glass filter using a cell harvester, the level of [^3H] thymidine taken up into the cells was determined using a liquid scintillation counter. […]

[3] = tested on: HLA class II molecules; test: Identifying the HLA class II restriction molecules (transfected mouse L-cells or haplotype-matched B cell line as antigen-presenting cells); conditions: 2 μM peptide
Method: HLA class II restriction molecules can be identified using the T cell clones whose restriction molecules were identified at the HLA class II locus level and, as antigen-presenting cells, mouse L-cells transfected with each type for DR and B cell line having the same haplotype for DQ or DP.
A mixture of 5×10^4 mouse L cells previously treated with mitomycin C of the B cell line coincident in haplotype; 2 μM of an overlapping peptide; 3 μg/ml of anti-DR, -DQ or -DP monoclonal antibody (manufactured by Becton-Dickinson Inc.); and 2×10^4 cells of the T cell clone was incubated for 2 days in RPMI-1640 medium supplemented with 0.2 ml of 15% serum on a 96-well micro culture plate. After 0.5 μCi [^3H] thymidine was added to the medium, incubation was continued for a further 18 hours. After the cells were harvested on a glass filter using a cell harvester, the level of [^3H] thymidine taken up into the cells was determined using a liquid scintillation counter.

[4] = tested on: T cell line of each patient specifically recognizing Cry j 1 or Cry j 2; test: T cell line proliferation response to overlapping peptides ([3H] thymidine uptake); conditions: mean stimulation index multiplied by frequency of appearance; T cell lines of 18 patients; 2 μM peptide
Method: Peripheral lymphocytes from 18 patients with cedar pollinosis were stimulated by cedar pollen allergen Cry j 1 or Cry j 2to establish the T cell line of each patient capable of specifically recognizing the respective allergen.
A mixture of 5×10^4 cells of the autologous B cell line treated with mitomycin C, 2 μM of an overlapping peptide, and 2×10^4 cells of the T cell line was incubated for 2 days in RPMI-1640 medium supplemented with 0.2 ml of 15% serum on a 96-well culture plate. After 0.5 μCi [^3H] thymidine was added to the medium, incubation was continued for a further 18 hours. After the cells were harvested on a glass filter using a cell harvester, the level of [^3H] thymidine taken up into the cells was determined with a liquid scintillation counter. If the stimulation index is 2 or more, we consider that the added peptide is recognized as an antigenic peptide. The stimulation index means a value obtained by dividing the level of [^3H] thymidine taken up into the cells when the peptide was added by the level of [^3H] thymidine taken up into the cells when no peptide was added.
The HLA class II type is considered to vary in every patient. It is thus assumed that a T cell epitope to be recognized would vary depending on the HLA class II type. For this reason, the antigenic peptide that the patients recognized was mapped for the individual patient. […] On the allergen molecule, there are both regions that can be readily recognized and regions that can hardly be recognized, as a T cell epitope, depending on individuals. Moreover, since the proliferation rate of T cells varies depending on a T cell epitope, the epitope map alone makes it difficult to determine what antigenic peptide should be chosen to design the multi-epitope peptide.

[5] = tested on: T cell lines (PJ, PR, PB) and T cell clones (PB 8-3, PB 8-2, PB 9-39); test: Determination of core sequence of Cry j 1 peptide No. 22 with T cell lines and clones
Description: To determine the minimum amino acid sequence (core) of the Cry j 1 peptide No. 22 (p106-120) necessary for the T cell line and T cell clone proliferation response, one amino acid residue each was deleted from the N and C terminals of this peptide as shown in FIG. 15 to prepare eleven peptides, i.e., p107-120 (p22-2), P108-120 (p22-3), p109-120 (p22-4), p110-120 (p22-5), p111-120 (p22-6), p106-119 (p22-7), p106-118 (p22-8), p106-117 (p22-9), p106-116 (p22-10), and p106-115 (p22-11) using a peptide synthesizer (PSSM-8, manufactured by Shimadzu Seisakusho Ltd.). The T cell lines (PJ, PR, PB) derived from three patients with cedar pollinosis and which react with Cry j 1 Peptide No. 22, p106-120, and the T cell clones (PB 8-3, PB 8-2, PB 9-39) from one of the patients were examined for the reactivity with these 11 peptides in the same manner as in Examples 1 and 2. […] The results reveal that the p106-120 core sequence consists of nine residues of “FIKRVSNVI”(SEQ ID NO. 7) (the nine residues are designated as Cry j 1 #22 core).

[6] = tested on: Cha o 1-specific T cell line; test: Reactivity of Cha o 1-specific T cell line; conditions: from patients with hinoki pollinosis
Description: (§1) Two peptides (Cha o 1 #8-Cry j 1 #22 core, Cha o 1 #32-Cry j 1 #22 core) were synthesized by joining Peptide No. 8 (p71-90: […] SEQ ID NO. 11) which is a T cell epitope of hinoki pollen allergen Cha o 1 (Japanese Patent Application N. Hei. 8-15327), or Peptide No. 32 ([…]: […] SEQ ID NO. 12) to Cry j 1 #22 core sequence “FIKRVSNVI”(SEQ ID NO. 7) obtained in Example 14 using a peptide synthesizer (PSSM-8, Shimadzu Seisakusho Ltd.). An RR sequence was inserted between Cha o 1 #8 and Cry j 1 #22 core and between Cha o 1 #32 and Cry j 1 #22 core, that is, Cha o 1 #8-Cry j 1 #22 core (SEQ NO: 4) and Cha o 1 #32-Cry j 1 #22 core (SEQ NO: 5).
(§2) A Cry j 1-specific T cell line and a Cha o 1-specific T cell line were prepared from the patients with cedar pollinosis and hinoki pollinosis, respectively. […] However, these T cell lines all react with the multi-epitope peptide of SEQ NO: 4 and with the multi-epitope peptide of SEQ NO: 5.

[7] = tested on: Cry j 1-specific T cell line; test: Reactivity of Cry j 1-specific T cell line; conditions: from patients with cedar pollinosis
Description: as §1, §2

[8] = tested on: T cell clone PJ7-9; test: Proliferation response and cytokine production of T cell clone PJ7-9 to analog peptides; conditions: unsubstituted 13-residue peptide regarded as 100%
Description: Two clones, PJ7-9 and PB10-18, were employed to see if the activity of T cells can be altered by substituting the amino acids of T cell epitope peptide of the Cry j 1 #22 core. T cell clones PJ 7-9 and PB10-12 which react with Cry j 1 Peptide No. 22 p106-120 are restricted by DRB5*0101 and recognize the nine residues of the Cry j 1 #22 core. Each of the nine amino acids residues in the peptides p108-120 (VFIKRVSNVIIHG SEQ ID NO. 13) of 13 residues including the nine residues were substituted with an homologous amino acid and a non-homologous amino acid to produce analog peptides (FIGS. 17 and 18). The reactivity of T cell clones PJ 7-9 and PB 10-18 with these analog peptides was examined in terms of the uptake of [^3H] thymidine. The concentration of cytokine in the reaction solution was measured using a cytokine assay kit manufactured by R & D Systems. The production of IFN-γ, IL-4, IL-2, and IL-5 in the supernatant and the uptake of [^3H] thymidine obtained by reacting the peptide of 13 residues with no amino acid substitution were regarded as 100%. […] Accordingly, the amino acids located in these positions are considered to be important for forming the complex of HLA and T cell receptor molecules via the peptide. […] For the PB 10-18 clone, the uptake of [3H] thymidine is suppressed by substitution of amino acid No. 1, 2, 3, 4, 6, 7, or 8 of Cry j 1 #22 core. The amino acids located in these positions are considered to be important for forming the complex of HLA and T cell receptor molecules via the peptide. It is further observed that the IL-2 production is suppressed by substitution of amino acid No. 6, 7, or 8, as compared to IL-5 production (FIG. 18).

Row | Substance | proliferation response of the T cell clones recognizing the respective epitope [1] | recognition of peptide by allergen-specific T cell clones [2] | peptide-presenting restriction molecule [3] | positivity index [4] | proliferation response ([5]; one T cell line and T cell clone) | proliferation response ([5]; two T cell lines (PJ, PB) and two T cell clones (PB 8-2, PB 9-39)) | reactivity of Cha o 1-specific T cell line [6] | reactivity of Cry j 1-specific T cell line [7] | IFN-γ production [8] | IL-2 production [8] | uptake of [3H] thymidine [8]
1 | KSMKVTVAFNQFGPN [Cry j 1 Peptide No. 43] | react well | recognized | DPA1*0101-DPB1*0501 | 679 |  |  |  |  |  |  | 
2 | Cry j 1 Peptide No. 22: Cry j 1 overlapping peptide No. 22, p106-120 (PCVFIKRVSNVIIHG; Figure 15, p22-1.; listed as Cryptomeria japonica) | react well | recognized | DRB5*0101 | 578 | did not show any proliferation response | proliferated | does not react with | reacts with |  |  | 
3 | SIKRVSNVI (listed as Cryptomeria japonica) [Cry j 1 #22 core with the first amino acid F substituted with S] |  |  |  |  |  |  |  |  | marked increase | marked increase | no change
